Results: US12351570B2 (MERCK PATENT GMBH, priority 2018, dated 2025)

Tested on: MDA-MB-231 cells
Assay: Extracellular lactate production inhibition after 4 h, MDA-MB-231
Conditions: Homo sapiens, MDA-MB-231
Protocol: Extracellular Lactate Production Inhibition after 4 h
Cells were plated in growth media supplemented with 10% FBS, followed by overnight recovery at 37° C., 5% CO2. […] Plates were then moved for 4 h incubation at 37° C., 5% CO2 with subsequent 20 μl media transfer to empty 384-well transparent plates. […] Plates were short-spun and measured kinetically in absorbance mode (530 nm, 12 min measurement time with 2-minute intervals between subsequent readouts at 30° C.). Differences in the signal between T8 min and T0min were normalized to vehicle (cells w/ 0.25% DMSO) and quasi-positive (LCIS buffer w/ 0.25% DMSO) controls and plotted against logarithmically-transformed test compound concentrations with fitting the 4-parameter model in GraphPad Prism software.

Row | IC50 | SMILES
1 | 0.1 to 1 µM | COc1ccc(S(=O)(=O)Nc2ccccc2C#Cc2cnc(C(=O)O)cc2OC)cc1 [Compound 391, 4-Methoxy-5-[2-(4-methoxy-benzenesulfonylamino)-phenylethynyl]-pyridine-2-carboxylic acid]
2 | 0.1 to 1 µM | COCCOC(=O)c1ccc(C#Cc2ccccc2NS(=O)(=O)c2c(C)ccc3cccnc23)cn1 [Compound 410, 2-methoxyethyl 5-{2-[2-(7-methylquinoline-8-sulfonamido)phenyl]ethynyl}pyridine-2-carboxylate]
3 | 0.01 to 0.1 µM | COc1ccccc1-c1ccc(CN(C=O)c2ccccc2C#Cc2ccc(C(=O)O)nc2)cc1 [Compound 191, 5-(2-{2-[N-({2′-methoxy-[1,1′-biphenyl]-4-yl}methyl)formamido]phenyl}ethynyl)-pyridine-2-carboxylic acid]
4 | 0.01 to 0.1 µM | COc1ccc(S(=O)(=O)Nc2ccc(Cl)cc2C#Cc2cnc(C(=O)O)c3ccccc23)c(C)c1C [Compound 400, 4-[5-Chloro-2-(4-methoxy-2,3-dimethyl-benzenesulfonylamino)-phenylethynyl]-isoquinoline-1-carboxylic acid]
5 | 0.001 to 0.01 µM | COc1cc(C(=O)O)ncc1C#Cc1cc(Br)c(F)cc1NS(=O)(=O)c1ccc(OC)c2cccnc12 [Compound 358, 5-{2-[5-bromo-4-fluoro-2-(5-methoxyquinoline-8-sulfonamido)phenyl]ethynyl}-4-methoxypyridine-2-carboxylic acid]
6 | 0.01 to 0.1 µM | COCCOC(=O)c1cc(OC)c(C#Cc2ccccc2NS(=O)(=O)c2c(C)ccc3cccnc23)cn1 [Compound 412, 2-methoxyethyl 4-methoxy-5-{2-[2-(7-methylquinoline-8-sulfonamido)phenyl]ethynyl}pyridine-2-carboxylate]
7 | 1 to 100 µM | CN(c1ccccc1)S(=O)(=O)c1ccccc1C#Cc1ccc(C(=O)O)nc1 [Compound 440, 5-(2-{2-[methyl(phenyl)sulfamoyl]phenyl}-ethynyl)pyridine-2-carboxylic acid]
8 | 1 to 100 µM | O=C(O)c1ccc(C#Cc2ccccc2NS(=O)(=O)C2Cc3ccccc3C2)cc1 [Compound 93, 4-{2-[2-(2,3-dihydro-1H-indene-2-sulfonamido)phenyl]ethynyl}benzoic acid]
9 | 0.1 to 1 µM | Cc1cc(C#Cc2ccccc2N(C=O)Cc2ccc3ccccc3c2)cnc1C(=O)O [Compound 195, 3-methyl-5-[2-(2-{N-[(naphthalen-2-yl)methyl]formamido}phenyl)ethynyl]-pyridine-2-carboxylic acid]
10 | 1 to 100 µM | Cc1ccc2cccnc2c1S(=O)(=O)Nc1ccccc1C#Cc1cnc(C(=O)O)cc1O [Compound 193, 4-hydroxy-5-{2-[2-(7-methylquinoline-8-sulfonamido)phenyl]ethynyl}pyridine-2-carboxylic acid]
11 | 0.1 to 1 µM | COc1ccc(S(=O)(=O)Nc2ccccc2C#Cc2ccc(C(=O)O)nc2)c2ccccc12 [Compound 31, 5-{2-[2-(4-methoxynaphthalene-1-sulfonamido)phenyl]ethynyl}pyridine-2-carboxylic acid]
12 | 0.01 to 0.1 µM | Cc1cc(C#Cc2ccccc2NS(=O)(=O)c2ccc(OC(F)(F)F)c3cccnc23)cnc1C(=O)O [Compound 382, 3-Methyl-5-[2-(5-trifluoromethoxy-quinoline-8-sulfonylamino)-phenylethynyl]-pyridine-2-carboxylic acid]
13 | 0.01 to 0.1 µM | Cc1cc(C#Cc2cc(F)ccc2NS(=O)(=O)c2c(C)ccc3cccnc23)cnc1C(=O)O [Compound 307, 5-{2-[5-fluoro-2-(7-methylquinoline-8-sulfonamido)phenyl]ethynyl}-3-methylpyridine-2-carboxylic acid]

The next lines start with the molecule.

Row | SMILES | IC50
14 | COc1cc(C(=O)O)ncc1C#Cc1ccccc1NS(=O)(=O)c1ccc(OC(F)(F)F)c2cccnc12 [Compound 389, 4-Methoxy-5-[2-(5-trifluoromethoxy-quinoline-8-sulfonylamino)-phenylethynyl]-pyridine-2-carboxylic acid] | 0.001 to 0.01 µM
15 | CC(C)Nc1ccnc2c(S(=O)(=O)Nc3ccccc3C#Cc3ccc(C(=O)O)nc3)cccc12 [Compound 427, 5-[2-(4-Isopropylamino-quinoline-8-sulfonylamino)-phenylethynyl]-pyridine-2-carboxylic acid] | 1 to 100 µM
16 | O=C(O)c1ccc(C#Cc2cccc(F)c2NS(=O)(=O)c2ccc3ccccc3c2)cc1 [Compound 32, 4-{2-[3-fluoro-2-(naphthalene-2-sulfonamido)phenyl]ethynyl}benzoic acid] | 0.1 to 1 µM
17 | COCCOCCOc1ccnc2c(S(=O)(=O)Nc3ccccc3C#Cc3ccc(C(=O)O)nc3)cccc12 [Compound 330, 5-[2-(2-{4-[2-(2-methoxyethoxy)-ethoxy]quinoline-8-sulfonamido}-phenyl)ethynyl]pyridine-2-carboxylic acid] | 1 to 100 µM
18 | COC(=O)c1cc(C)c(C#Cc2cc(F)ccc2NS(=O)(=O)c2ccc(-c3ccccc3)cc2)cn1 [Compound 139, methyl 5-[2-(2-{[1,1′-biphenyl]-4-sulfonamido}-5-fluorophenyl)ethynyl]-4-methylpyridine-2-carboxylate] | 0.1 to 1 µM
19 | Cc1cc(C#Cc2ccccc2NS(=O)(=O)c2c(C)ccc3cccnc23)cnc1C(=O)O [Compound 102, 3-methyl-5-{2-[2-(7-methylquinoline-8-sulfonamido)phenyl]ethynyl}pyridine-2-carboxylic acid] | 0.01 to 0.1 µM
20 | Cc1cc(C(=O)O)ncc1C#Cc1cc(F)ccc1NS(=O)(=O)c1c(C)ccc2cccnc12 [Compound 148, 5-{2-[5-fluoro-2-(7-methylquinoline-8-sulfonamido)phenyl]ethynyl}-4-methylpyridine-2-carboxylic acid] | 0.01 to 0.1 µM
21 | O=C(O)c1ccc(C#Cc2ccccc2NS(=O)(=O)c2cccc3cccnc23)cn1 [Compound 52, 5-{2-[2-(quinoline-8-sulfonamido)phenyl]ethynyl}pyridine-2-carboxylic acid] | 0.1 to 1 µM
22 | COc1cc(C(=O)O)ncc1C#Cc1ccccc1NS(=O)(=O)c1ccc(OC)c(C)c1C [Compound 241, 4-methoxy-5-{2-[2-(4-methoxy-2,3-dimethylbenzenesulfonamido)-phenyl]ethynyl}pyridine-2-carboxylic acid] | 0.01 to 0.1 µM
23 | COc1ccc(S(=O)(=O)Nc2ccc(Br)cc2C#Cc2cnc(C(=O)O)c3ccccc23)c2ncccc12 [Compound 235, 4-{2-[5-bromo-2-(5-methoxyquinoline-8-sulfonamido)phenyl]ethynyl}isoquinoline-1-carboxylic acid] | 0.001 to 0.01 µM
24 | COc1ccc(S(=O)(=O)Nc2ccc(F)cc2C#Cc2cnc(C(=O)O)c(C)c2)c2ncccc12 [Compound 311, 5-{2-[5-fluoro-2-(5-methoxyquinoline-8-sulfonamido)phenyl]ethynyl}-3-methylpyridine-2-carboxylic acid] | 0.1 to 1 µM
25 | CCOc1cc(C(=O)O)ncc1C#Cc1ccccc1NS(=O)(=O)c1c(C)ccc2cccnc12 [Compound 180, 4-ethoxy-5-{2-[2-(7-methylquinoline-8-sulfonamido)phenyl]ethynyl}pyridine-2-carboxylic acid] | 0.01 to 0.1 µM
26 | CN(C)c1ccnc2c(S(=O)(=O)Nc3ccccc3C#Cc3ccc(C(=O)O)nc3)cccc12 [Compound 420, 5-[2-(4-Dimethylamino-quinoline-8-sulfonylamino)-phenylethynyl]-pyridine-2-carboxylic acid] | 1 to 100 µM
27 | Cc1cc(C#Cc2ccccc2N(C=O)Cc2ccc(-c3ccccc3)cc2)cnc1C(=O)O [Compound 194, 5-(2-{2-[N-({[1,1′-biphenyl]-4-yl}methyl)formamido]phenyl}ethynyl)-3-methylpyridine-2-carboxylic acid] | 0.1 to 1 µM
28 | Cc1ccc2cccnc2c1S(=O)(=O)Nc1ccccc1C#Cc1cnc(C(=O)O)cc1N(C)C [Compound 187, 4-(dimethylamino)-5-{2-[2-(7-methylquinoline-8-sulfonamido)phenyl]-ethynyl}pyridine-2-carboxylic acid] | 0.1 to 1 µM
29 | CCc1cc(C#Cc2ccccc2NS(=O)(=O)c2c(CC)ccc3cccnc23)cnc1C(=O)O [Compound 375, 3-Ethyl-5-[2-(7-ethyl-quinoline-8-sulfonylamino)-phenylethynyl]-pyridine-2-carboxylic acid] | 0.001 to 0.01 µM
30 | CC(C)Oc1ccc2cccnc2c1S(=O)(=O)Nc1ccccc1C#Cc1ccc(C(=O)O)nc1 [Compound 211, 5-(2-{2-[7-(propan-2-yloxy)quinoline-8-sulfonamido]phenyl}ethynyl)pyridine-2-carboxylic acid] | 0.01 to 0.1 µM
31 | COc1cc(CN(C=O)c2ccccc2C#Cc2ccc(C(=O)O)nc2)ccc1-c1ccccc1 [Compound 201, 5-(2-{2-[N-({2-methoxy-[1,1′-biphenyl]-4-yl}methyl)formamido]phenyl}-ethynyl)pyridine-2-carboxylic acid] | 0.01 to 0.1 µM
32 | COc1ccc(S(=O)(=O)Nc2ccc(Br)cc2C#Cc2ccc(C(=O)O)nc2)c2ncccc12 [Compound 328, 5-{2-[5-bromo-2-(5-methoxyquinoline-8-sulfonamido)phenyl]ethynyl}pyridine-2-carboxylic acid] | 0.001 to 0.01 µM
33 | Cc1ccc2cc(Cl)cc(S(=O)(=O)Nc3ccccc3C#Cc3ccc(C(=O)O)nc3)c2n1 [Compound 317, 5-{2-[2-(6-chloro-2-methylquinoline-8-sulfonamido)phenyl]ethynyl}pyridine-2-carboxylic acid] | 0.1 to 1 µM
34 | COC(=O)c1ncc(C#Cc2cc(F)ccc2NS(=O)(=O)c2cccc(OC)c2)cc1C [Compound 321, methyl 5-{2-[5-fluoro-2-(3-methoxy-benzenesulfonamido)phenyl]ethynyl}-3-methylpyridine-2-carboxylate] | 1 to 100 µM
35 | O=C(O)c1ccc(C#Cc2ccccc2NS(=O)(=O)c2ccc(C3=CCCCC3)cc2)cn1 [Compound 177, 5-(2-{2-[4-(cyclohex-1-en-1-yl)benzenesulfonamido]phenyl}-ethynyl)pyridine-2-carboxylic acid] | 0.1 to 1 µM
36 | O=C(O)c1ccc(C#Cc2cc(Cl)ccc2NS(=O)(=O)c2ccc(Cl)cc2)cn1 [Compound 280, 5-{2-[5-chloro-2-(4-chlorobenzene-sulfonamido)phenyl]ethynyl}pyridine-2-carboxylic acid] | 1 to 100 µM
37 | COc1ccccc1-c1ccccc1CN(C=O)c1ccccc1C#Cc1ccc(C(=O)O)nc1 [Compound 189, 5-(2-{2-[N-({2′-methoxy-[1,1′-biphenyl]-2-yl}methyl)formamido]phenyl}-ethynyl)pyridine-2-carboxylic acid] | 0.1 to 1 µM
